# Legend:
# [1] = target: PTGER4 (EP4) (Homo sapiens (Human), UniProt P35408); assay: cell-based
# [2] = target: EP2 (Homo sapiens (Human), UniProt P43116); assay: hEP2 cAMP assay (SF295 glioblastoma cells, HTRF cAMP); assay type: cell-based; conditions: antagonistic activity
# Description: (§1) Human tumor cell lines expressing endogenously either EP4 or EP2 are used and cAMP accumulation in cells upon PGE2 stimulation is monitored. SF295 glioblastoma cells express high endogenous EP2 and no EP4, whereas BT549 breast cancer cells, express high endogenous EP4 levels and very low EP2 levels.
# (§2) As a detection method for cAMP the HTRF (homogeneous time resolved fluorescence) Cisbio kit (HTRF cAMP dynamic 2 kit 20'000 tests Cisbio Cat. #62AM4PEC) was used, which is based on a competitive immunoassay using a Cryptate-labeled anti-cAMP antibody and d2-labeled cAMP. Native cAMP produced by cells or unlabeled cAMP (for the standard curve) compete with exogenously added d2-labeled cAMP (acceptor) for binding to monoclonal anti-cAMP-Eu3+Cryptate (donor). A FRET signal (Fluorescence Resonance Energy Transfer) is obtained only if the labeled anti-cAMP antibody binds the d2 labelled cAMP, thus the specific signal (i.e. energy transfer) is inversely proportional to the concentration of cAMP in the standard or sample.
# (§3) Cells are counted washed and resuspended in assay buffer (AB; HBSS, 20 mM HEPES, 0.2% BSA; 2 mM IBMX).
# Plate is pre-incubated 45 minutes at RT. […] Plate is incubated 30 minutes at RT.
# [3] = target: EP4 (Homo sapiens (Human), UniProt P35408); assay: hEP4 cAMP assay (BT549 breast cancer cells, HTRF cAMP); assay type: cell-based; conditions: antagonistic activity, PGE2 6 nM
# Description: as §1, §2, §3
# Plate is pre-incubated 45 minutes at RT. Subsequently, 2.5 microliters of PGE2 (final conc. 6 nM) are transferred into the assay plate. Plate is incubated 30 minutes at RT.
# [4] = target: PTGER2 (EP2) (Homo sapiens (Human), UniProt P43116); assay: hEP2 b-arrestin assay (PathHunter HEK 293 PTGER2 b-arrestin cells); assay type: cell-based; conditions: antagonistic activity, beta-arrestin assay; read-out: hEP2 b-arr IC50
# Description: Plate is pre-incubated 15 minutes at 37° C. Then five microliters of PGE2 (final conc. 5 μM) are transferred into the assay plate. Plate is incubated 120 minutes at 37° C.
# (each concentration is measured in duplicate)
# Chain of EP4 (P35408 whole entry): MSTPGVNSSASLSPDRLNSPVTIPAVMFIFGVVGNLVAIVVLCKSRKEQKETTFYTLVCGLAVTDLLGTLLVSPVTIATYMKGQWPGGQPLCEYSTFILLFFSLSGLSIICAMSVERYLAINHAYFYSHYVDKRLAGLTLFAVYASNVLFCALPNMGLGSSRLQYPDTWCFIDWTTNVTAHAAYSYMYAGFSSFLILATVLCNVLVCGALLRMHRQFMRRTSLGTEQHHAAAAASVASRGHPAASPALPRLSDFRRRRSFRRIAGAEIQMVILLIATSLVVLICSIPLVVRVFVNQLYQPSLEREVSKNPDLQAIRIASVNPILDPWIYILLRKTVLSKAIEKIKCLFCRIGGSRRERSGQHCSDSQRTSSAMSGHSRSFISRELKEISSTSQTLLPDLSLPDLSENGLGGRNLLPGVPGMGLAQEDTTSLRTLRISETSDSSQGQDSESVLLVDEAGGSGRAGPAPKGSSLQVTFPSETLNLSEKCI
# Chain of PTGER4 (EP4) (P35408 whole entry): as above
# Chain of EP2 (P43116 whole entry): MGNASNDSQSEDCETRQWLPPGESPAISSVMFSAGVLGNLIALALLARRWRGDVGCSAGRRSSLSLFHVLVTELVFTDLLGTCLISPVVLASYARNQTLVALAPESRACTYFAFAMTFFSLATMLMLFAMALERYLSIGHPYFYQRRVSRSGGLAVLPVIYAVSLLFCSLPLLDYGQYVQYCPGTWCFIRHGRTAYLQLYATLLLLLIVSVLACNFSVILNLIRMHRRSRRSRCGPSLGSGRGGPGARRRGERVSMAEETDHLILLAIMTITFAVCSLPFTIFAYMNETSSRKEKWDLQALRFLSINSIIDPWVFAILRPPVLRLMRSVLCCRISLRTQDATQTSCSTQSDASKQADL
# Chain of PTGER2 (EP2) (P43116 whole entry): as above
Compound,IC50 [1] [nM],IC50 [2] [nM],IC50 [3] [nM],IC50 [4] [nM]
CSc1cc(-c2cc(NCCc3cc(C)c4c(c3)OCCO4)ncn2)ccc1C(=O)O [Ex 292],1510,688,538,
CCOc1cc(-c2cc(NCCc3ccc4ccn(CC)c4c3)ncn2)sc1C(=O)O [Ex 242],495,443,351,
CCOc1cc(-c2cc(NCCc3cc4c(cc3SC)OCCO4)ncn2)ccc1OCC(=O)O [Ex 145],90,519,134,
CCOc1cc(-c2cc(NCCc3cc4c(cc3OC)OCCO4)ncn2)ccc1CC(=O)O [Ex 175],179,301,185,
O=C(O)c1ccc(-c2cc(NCCc3ccc4ccsc4c3)ncn2)cc1OC1CCC1 [Ex 147],219,571,141,
"CSc1cc(-c2cc(NCCc3ccc4c(c3)OCCC4)ncn2)ccc1C(=O)O [Ex 285, 4-[6-(2-Chroman-7-yl-ethylamino)-pyrimidin-4-yl]-2-methylsulfanyl-benzoic acid]",341,7520,513,
"CCOc1cc(-c2cc(NCCc3cc4ccccc4cc3OC)ncn2)ccc1OCC(=O)O [Ex 122, (2-Ethoxy-4-{6-[2-(3-methoxy-naphthalen-2-yl)-ethylamino]-pyrimidin-4-yl}-phenoxy)-acetic acid]",19,324,95,
"CSc1cc2c(cc1CCNc1cc(-c3ccc(C(=O)O)c(OC4CCC4)c3)ncn1)OCCO2 [Ex 70, 2-Cyclobutoxy-4-{6-[2-(7-methylsulfanyl-2,3-dihydro-benzo[1,4]dioxin-6-yl)-ethylamino]-pyrimidin-4-yl}-benzoic acid]",209,441,38,
CCOc1cc(-c2cc(NCCc3cc4ccccc4cc3OC)ncn2)ccc1C(=O)O [Ex 162],134,371,158,
CSc1cc(-c2cc(NCCc3cc(F)c4c(c3)OCCO4)ncn2)ccc1C(=O)O [Ex 216],307,490,267,
"CCOc1cc(-c2cc(NCCc3c(OC)cc4ccccc4c3F)ncn2)sc1C(=O)O [Ex 3, 3-Ethoxy-5-{6-[2-(1-fluoro-3-methoxy-naphthalen-2-yl)-ethylamino]-pyrimidin-4-yl}-thiophene-2-carboxylic acid]",1,26,2,
"CCOc1cc(-c2cc(NCCc3cc4cccnc4cc3F)ncn2)sc1C(=N)NO [Example 347, 3-Ethoxy-5-{6-[2-(7-fluoro-quinolin-6-yl)-ethylamino]-pyrimidin-4-yl}-N-hydroxy-thiophene-2-carboxamidine]",31,495,172,
CSc1cc(-c2cc(NCCc3ccc4c(c3)OCCO4)ncn2)ccc1C(=O)O [Ex 310],937,564,683,
"CCOc1cc(-c2cc(NCCc3cc4ccccc4cc3Cl)ncn2)sc1C(=O)O [Ex 62, 5-{6-[2-(3-Chloro-naphthalen-2-yl)-ethylamino]-pyrimidin-4-yl}-3-ethoxy-thiophene-2-carboxylic acid]",16,301,32,
"CSc1cc(-c2cc(NCCc3ccc4ccccc4c3)ncn2)ccc1C(=O)O [Ex 219, 2-Methylsulfanyl-4-[6-(2-naphthalen-2-yl-ethylamino)-pyrimidin-4-yl]-benzoic acid]",202,486,129,
CSc1cc(-c2cc(NCCc3ccc4[nH]ccc4c3)ncn2)ccc1C(=O)O [Ex 319],1180,354,559,
CCOc1cc(-c2cc(NCCc3ccc4ccccc4c3F)ncn2)ccc1OCC(=O)O [Ex 136],29,677,120,
CCOc1cc(-c2cc(NCCc3cc4ccoc4cc3F)ncn2)ccc1CC(=O)O [Ex 195],245,373,217,

Compound,IC50 [1] [nM],IC50 [2] [nM],IC50 [3] [nM],IC50 [4] [nM]
"CSc1cc(-c2cc(NCCc3ccc4c(c3)CCC4)ncn2)ccc1C(=O)O [Ex 185, 4-[6-(2-Indan-5-yl-ethylamino)-pyrimidin-4-yl]-2-methylsulfanyl-benzoic acid]",258,452,200,
"CSc1cc(-c2cc(NCCc3cc4ccoc4cc3F)ncn2)ccc1C(=O)O [Ex 238, 4-{6-[2-(6-Fluoro-benzofuran-5-yl)-ethylamino]-pyrimidin-4-yl}-2-methylsulfanyl-benzoic acid]",,75,343,55
"CCOc1cc(-c2cc(NCCc3cc4ccccc4cc3C)ncn2)ccc1C(=O)O [Ex 240, 2-Ethoxy-4-{6-[2-(3-methyl-naphthalen-2-yl)-ethylamino]-pyrimidin-4-yl}-benzoic acid]",598,816,346,
"CCOc1cc(-c2cc(NCCc3ccc4ccccc4c3)ncn2)sc1-c1noc(=O)[nH]1 [Example 345, 3-{3-Ethoxy-5-[6-(2-naphthalen-2-yl-ethylamino)-pyrimidin-4-yl]-thiophen-2-yl}-[1,2,4]oxadiazol-5(4H)-one]",6,683,30,
"CCOc1cc(-c2cc(NCCc3ccc4c(c3)CCC4)ncn2)sc1C(=O)O [Ex 44, 3-Ethoxy-5-[6-(2-indan-5-yl-ethylamino)-pyrimidin-4-yl]-thiophene-2-carboxylic acid]",24,283,21,
"Fc1cc2ncccc2c(F)c1CCNc1cc(-c2ccc3cnccc3c2)ncn1 [Ex 318, [2-(5,7-Difluoro-quinolin-6-yl)-ethyl]-(6-isoquinolin-6-yl-pyrimidin-4-yl)-amine]",,247,753,408
"O=C(O)c1ccc(-c2cc(NCCc3ccc4cc[nH]c4c3)ncn2)cc1OC1CCC1 [Ex 278, 2-Cyclobutoxy-4-{6-[2-(1H-indol-6-yl)-ethylamino]-pyrimidin-4-yl}-benzoic acid]",,187,477,281
CCOc1cc(-c2cc(NCCc3cc4c(cc3OC)OCCO4)ncn2)ccc1C(=O)O [Ex 286],,86,515,198
"c1nc(NCCc2ccc3cc[nH]c3c2)cc(-c2ccc3[nH]ccc3c2)n1 [Ex 226, [2-(1H-Indol-6-yl)-ethyl]-[6-(1H-indol-5-yl)-pyrimidin-4-yl]-amine]",,250,291,151
CCOc1cc(-c2cc(NCCc3ccc4cc[nH]c4c3)ncn2)ccc1OC(C)C(=O)O (stereo not drawn) [Ex 223],,199,288,329
CCSc1cc(-c2cc(NCCc3cc4ccoc4cc3F)ncn2)ccc1C(=O)O [Ex 275],,102,468,67
"COc1cc2c(cc1CCNc1cc(-c3ccc(C(=O)O)c(OC4CCC4)c3)ncn1)OCO2 [Ex 213, 2-Cyclobutoxy-4-{6-[2-(6-methoxy-benzo[1,3]dioxol-5-yl)-ethylamino]-pyrimidin-4-yl}-benzoic acid]",,46,256,59
CCOc1cc(-c2cc(NCCc3ccc4ccccc4c3C)ncn2)ccc1-c1noc(O)n1 [Ex 220],,141,283,113
"CCOc1cc(-c2cc(NCCc3c(OC)cc4occc4c3C)ncn2)ccc1C(=O)O [Ex 221, 2-Ethoxy-4-{6-[2-(6-methoxy-4-methyl-benzofuran-5-yl)-ethylamino]-pyrimidin-4-yl}-benzoic acid]",,2,285,8
"CCOc1cc(-c2cc(NCCc3cc4c(cc3OC)OCO4)ncn2)ccc1C(=O)O [Ex 315, 2-Ethoxy-4-{6-[2-(6-methoxy-benzo[1,3]dioxol-5-yl)-ethylamino]-pyrimidin-4-yl}-benzoic acid]",,73,703,134
"CCOc1cc(-c2cc(NCCc3cc4ccoc4cc3OC)ncn2)ccc1OC(C)C(=O)O (stereo not drawn) [Ex 233, 2-(2-Ethoxy-4-{6-[2-(6-methoxy-benzofuran-5-yl)-ethylamino]-pyrimidin-4-yl}-phenoxy)-propionic acid]",,76,322,29
CCOc1cc(-c2cc(NCCc3cc4c(cc3OC(F)F)OCO4)ncn2)ccc1OCC(=O)O [Ex 217],,321,272,238
O=C(O)c1ccc(-c2cc(NCCc3c(F)cc4ncccc4c3F)ncn2)cc1OC1CCC1 [Ex 228],,194,300,392

# Source: patent US11839613B2, “Pyrimidine derivatives as PGE2 receptor modulators” (IDORSIA PHARMACEUTICALS LTD, priority 2017, dated 2023)
